Among the data in US11491157B2, “Cycloalkyl substituted pyrazolopyrimidines having activity against RSV” (priority 2018, dated 2022) are CC50 and EC50 values, retold here.

Where a name gives a salt, the structure may show the parent alone.

Usually EC50 stands for the concentration giving half of the maximal effect.

The nature of data set [1]: in vitro. The note with it: human.
Description: (§1) Black 384-well clear-bottom microtiter plates (Corning, Amsterdam, The Netherlands) were filled via acoustic drop ejection using the echo liquid handler (Labcyte, Sunnyvale, Calif.). 200 nL of compound stock solutions (100% DMSO) were transferred to the assay plates. 9 serial 4-fold dilutions of compound were made, creating per quadrant the same compound concentration. The assay was initiated by adding 10 μL of culture medium to each well (RPMI medium without phenol red, 10% FBS-heat inactivated, 0.04% gentamycin (50 mg/mL). All addition steps are done by using a multidrop dispenser (Thermo Scientific, Erembodegem, Belgium). Next, rgRSV224 virus (MOI=1) diluted in culture medium was added to the plates. rgRSV224 virus is an engineered virus that includes an additional GFP gene (Hallak L K, Spillmann D, Collins P L, Peeples M E. Glycosaminoglycan sulfation requirements for respiratory syncytial virus infection; Journal of virology (2000), 74(22), 10508-13) and was in-licensed from the NIH (Bethesda, Md., USA). Finally, 20 μL of a HeLa cell suspension (3,000 cells/well) were plated. Medium, virus- and mock-infected controls were included in each test. The wells contain 0.05% DMSO per volume. Cells were incubated at 37° C. in a 5% CO2 atmosphere. Three days post-virus exposure, viral replication was quantified by measuring GFP expression in the cells by an in house developed MSM laser microscope (Tibotec, Beerse, Belgium). The EC50 was defined as the 50% inhibitory concentration for GFP expression. In parallel, compounds were incubated for three days in a set of white 384-well microtiter plates (Corning) and the cytotoxicity of compounds in HeLa cells was determined by measuring the ATP content of the cells using the ATPlite kit (Perkin Elmer, Zaventem, Belgium) according to the manufacturer's instructions. The CC50 was defined as the 50% concentration for cytotoxicity.
Data set [2] has as its system rgRSV224 virus. The experiment in a line: Antiviral activity: rgRSV224 (GFP) replication in HeLa cells. To be noted: human respiratory syncytial virus, 72 h, read-out: RSV HELA EC50.
Description: as §1

For `C[C@@H]1c2ccccc2CCN1C(=O)c1cc(C2CC2)n2nc(-c3cnc(C4C[C@H]4C(N)=O)cc3F)cc2n1` (relative stereo) [Compound 49, Trans-2-(5-{7-Cyclopropyl-5-[(1R)-1-methyl-1,2,3,4-tetrahydroisoquinoline-2-carbonyl]pyrazolo[1,5-a]pyrimidin-2-yl}-4-fluoropyridin-2-yl)cyclopropane-1-carboxamide], the CC50 at 3 days in data set [1] is 10.8 µM. For the same compound, the EC50 in data set [2] is 0.15 µM.

The compound `C[C@@H]1c2ccccc2CCN1C(=O)c1cc(C2CC2)n2nc(-c3cnc(C4C[C@H]4C(=O)NS(C)(=O)=O)cc3F)cc2n1` (relative stereo) [Compound 50, Trans-2-(5-{7-Cyclopropyl-5-[(1R)-1-methyl-1,2,3,4-tetrahydroisoquinoline-2-carbonyl]pyrazolo[1,5-a]pyrimidin-2-yl}-4-fluoropyridin-2-yl)-N-methanesulfonylcyclopropane-1-carboxamide] returned a CC50 at 3 days in data set [1] of 53.3 µM. Also, in data set [2], the EC50 came out at 0.389 µM.

Compound `C[C@@H]1c2ccccc2CCN1C(=O)c1cc(C2CC2)n2nc(-c3ccc(C4C[C@H]4C(N)=O)nc3F)cc2n1` (relative stereo) [Compound 51, Trans-2-(5-{7-Cyclopropyl-5-[(1R)-1-methyl-1,2,3,4-tetrahydroisoquinoline-2-carbonyl]pyrazolo[1,5-a]pyrimidin-2-yl}-6-fluoropyridin-2-yl)cyclopropane-1-carboxamide] came in with a CC50 at 3 days in data set [1] of 25.9 µM. Further, in data set [2], the concentration giving a half-maximal response (EC50) came to 0.047 µM.

The compound `C[C@@H]1c2ccccc2CCN1C(=O)c1cc(C2CC2)n2nc(-c3ccc(C4C[C@H]4C(=O)NS(C)(=O)=O)nc3F)cc2n1` (relative stereo) [Compound 52, Trans-2-(5-{7-Cyclopropyl-5-[(1R)-1-methyl-1,2,3,4-tetrahydroisoquinoline-2-carbonyl]pyrazolo[1,5-a]pyrimidin-2-yl}-6-fluoropyridin-2-yl)-N-methanesulfonylcyclopropane-1-carboxamide] registered a CC50 at 3 days in data set [1] of 65.3 µM. The EC50 in data set [2] was determined as 0.117 µM.

`C[C@@H]1c2ccccc2CCN1C(=O)c1cc(-c2ccccc2)n2nc(-c3ccc([C@H]4C[C@@H]4C(=O)NS(C)(=O)=O)cc3F)cc2n1` (single isomer, unassigned) [Compound 31, (1*S,2*S)-2-(3-Fluoro-4-{5-[(1R)-1-methyl-1,2,3,4-tetrahydroisoquinoline-2-carbonyl]-7-phenylpyrazolo[1,5-a]pyrimidin-2-yl}phenyl)-N-methanesulfonyl-cyclopropane-1-carboxamide; propan-2-amine salt] gave a CC50 at 3 days in data set [1] of 35.2 µM. Further, the EC50 in data set [2] came out at 0.04 µM.

Regarding `C[C@@H]1c2ccccc2CCN1C(=O)c1cc(-c2ccccc2)n2nc(-c3ccc([C@@H]4C[C@H]4C(=O)NS(C)(=O)=O)cc3F)cc2n1` (single isomer, unassigned) [Compound 32, (1*R,2*R)-2-(3-Fluoro-4-{5-[(1R)-1-methyl-1,2,3,4-tetrahydroisoquinoline-2-carbonyl]-7-phenylpyrazolo[1,5-a]pyrimidin-2-yl}phenyl)-N-methanesulfonyl-cyclopropane-1-carboxamide; propan-2-amine salt], in data set [1], the CC50 at 3 days was 37.3 µM. In addition, in data set [2], the 50% effective concentration (EC50) amounted to 0.061 µM.

Compound `C[C@@H]1c2ccccc2CCN1C(=O)c1cc(C2CC2)n2nc(-c3ccc([C@H]4C[C@@H]4CO)cc3F)cc2n1` [Compound 1, [(1S,2S)-2-(4-{7-Cyclopropyl-5-[(1R)-1-methyl-1,2,3,4-tetrahydroisoquinoline-2-carbonyl]pyrazolo[1,5-a]pyrimidin-2-yl}-3-fluorophenyl)cyclopropyl]methanol] gave a CC50 at 3 days in data set [1] of 41.8 µM. Moreover, the EC50 in data set [2] turned out to be 0.062 µM.

In turn, `C[C@@H]1c2ccccc2CCN1C(=O)c1cc(C2CC2)n2nc(-c3ccc([C@@H]4C[C@H]4c4cc(=O)[nH]o4)cc3F)cc2n1` [Compound 2, 5-[(1R,2R)-2-(4-{7-Cyclopropyl-5-[(1R)-1-methyl-1,2,3,4-tetrahydroisoquinoline-2-carbonyl]pyrazolo[1,5-a]pyrimidin-2-yl}-3-fluorophenyl)cyclopropyl]-2,3-dihydro-1,2-oxazol-3-one] had a CC50 at 3 days in data set [1] of 42.5 µM. In addition, in data set [2], the EC50 is 0.084 µM.

As for `C[C@@H]1c2ccccc2CCN1C(=O)c1cc(C2CC2)n2nc(-c3ccc([C@H]4C[C@@H]4C#N)cc3F)cc2n1` [Compound 3, (1S,2S)-2-(4-{7-Cyclopropyl-5-[(1R)-1-methyl-1,2,3,4-tetrahydroisoquinoline-2-carbonyl]pyrazolo[1,5-a]pyrimidin-2-yl}-3-fluorophenyl)cyclopropane-1-carbonitrile], in data set [1], the CC50 at 3 days is > 100 µM. The EC50 in data set [2] was 0.319 µM.

`C[C@@H]1c2ccccc2CCN1C(=O)c1cc(C2CC2)n2nc(-c3ccc([C@H]4C[C@@H]4c4noc(=O)[nH]4)cc3F)cc2n1` [Compound 5, 3-[(1S,2S)-2-(4-{7-Cyclopropyl-5-[(1R)-1-methyl-1,2,3,4-tetrahydroisoquinoline-2-carbonyl]pyrazolo[1,5-a]pyrimidin-2-yl}-3-fluorophenyl)cyclopropyl]-4,5-dihydro-1,2,4-oxadiazol-5-one]: the CC50 at 3 days in data set [1] worked out at 41.8 µM. In data set [2], the EC50 worked out at 0.098 µM.

`C[C@@H]1c2ccccc2CCN1C(=O)c1cc(C2CC2)n2nc(-c3ccc([C@H]4C[C@@H]4C(=O)NC#N)cc3F)cc2n1` [Compound 13, (1S,2S)—N-Cyano-2-(4-{7-cyclopropyl-5-[(1R)-1-methyl-1,2,3,4-tetrahydroisoquinoline-2-carbonyl]pyrazolo[1,5-a]pyrimidin-2-yl}-3-fluorophenyl)cyclopropane-1-carboxamide] registered a CC50 at 3 days in data set [1] of 49.8 µM. Besides, in data set [2], the half-maximal effective concentration (EC50) came out at 0.731 µM.

As for `CCNC(=O)[C@H]1C[C@@H]1c1ccc(-c2cc3nc(C(=O)N4CCc5ccccc5[C@H]4C)cc(C4CC4)n3n2)c(F)c1` [Compound 14, (1S,2S)-2-(4-{7-Cyclopropyl-5-[(1R)-1-methyl-1,2,3,4-tetrahydroisoquinoline-2-carbonyl]pyrazolo[1,5-a]pyrimidin-2-yl}-3-fluorophenyl)-N-ethylcyclopropane-1-carboxamide], the CC50 at 3 days in data set [1] is > 50 µM. In data set [2], the EC50 turned out to be 0.17 µM.

For `C#CCNC(=O)[C@H]1C[C@@H]1c1ccc(-c2cc3nc(C(=O)N4CCc5ccccc5[C@H]4C)cc(C4CC4)n3n2)c(F)c1` [Compound 17, (1S,2S)-2-(4-{7-Cyclopropyl-5-[(1R)-1-methyl-1,2,3,4-tetrahydroisoquinoline-2-carbonyl]-pyrazolo[1,5-a]pyrimidin-2-yl}-3-fluorophenyl)-N-(prop-2-yn-1-yl)cyclopropane-1-carboxamide], the CC50 at 3 days in data set [1] is > 100 µM. Also, the EC50 in data set [2] stood at 0.182 µM.

Turning to `C[C@@H]1c2ccccc2CCN1C(=O)c1cc(C2CC2)n2nc(-c3ccc([C@H]4C[C@@H]4C(=O)NC4(C)CC4)cc3F)cc2n1` [Compound 20, (1S,2S)-2-(4-{7-Cyclopropyl-5-[(1R)-1-methyl-1,2,3,4-tetrahydroisoquinoline-2-carbonyl]-pyrazolo[1,5-a]pyrimidin-2-yl}-3-fluorophenyl)-N-(1-methylcyclopropyl)cyclopropane-1-carboxamide], the CC50 at 3 days in data set [1] was > 10 µM. Further, the EC50 in data set [2] is 0.287 µM.
